Values of other authors, collected in patent US12527803B2, “Testosterone dodecanoate compositions and methods” (priority 2023, dated 2026).

Assays:
[1] = system: Enterhemorrhagic E. Coli (EHEC) biofilms; details: p<0.001 for lauric acid
[2] = system: normotensive and hypertensive rats
[3] = system: prostatic hyperplasia induced by testosterone; details: rats
[4] = system: Propionibacterium acnes, Staphylococcus aureus, Eschericia coli, Streptococci, Mycobacterium tuberculosis, Clostridium difficile and other bacteria
[5] = system: Candida albicans, Aspergillus niger, and Fusarium spp
[6] = system: Vesicular stomatitis virus, Herpes simplex virus, Visna virus, Respiratory syncytial virus, and Junin virus

| Structure (SMILES) | Repression of EHEC biofilms versus control [1] | Effect on BP and heart rate ([2]; normotensive and hypertensive rats) | Effect on HDL levels ([2]; rat, in vivo) | Effect on prostatic hyperplasia induced by testosterone [3] | Antibacterial benefit [4] | Antifungal benefit [5] | Antiviral benefit [6] |
| --- | --- | --- | --- | --- | --- | --- | --- |
| CCCCCCCCCCCC(=O)O [lauric acid] | repressed EHEC biofilms significantly differently than the control | reduce the BP and heart rate | increase HDL levels | prevent the prostatic hyperplasia induced by testosterone | antibacterial benefit | antifungal benefit | antiviral benefit |
| CCCCCCCCCCC(=O)O [undecanoic acid] | did not |  |  |  |  |  |  |
